Experimental findings from patent publication US12731806B2, “Electrolyte regeneration for organic redox flow batteries based on water-soluble phenazine-based compounds” (CMBLU Energy AG, priority 2020, dated 2026) are described below.

One series is described as follows: physchem. To be noted: aqueous buffer.
A short description of series [1]: Solubility of DHPS and its degradation species.

Converted amounts (≈) assume the structure as drawn.

As to `Oc1cc2nc3ccccc3nc2cc1O` [DHP, Dihydroxyphenazine], in the series “physchem”, the solubility – broadly, the concentration that dissolves in the medium under given conditions – lay within 200 to 400 mM (≈ 42.4 to 84.9 mg/mL).
The compound `O=S(=O)(O)c1ccc2nc3cc(O)c(O)cc3nc2c1` [DHPS, 7,8-Dihydroxyphenazinesulfonic acid] showed a solubility in “physchem” of 1400 to 1600 mM (≈ 409 to 468 mg/mL).
Consider `Oc1ccc2nc3ccccc3nc2c1` [MHP, Monohydroxyphenazine], for which, in series [1] (DHPS solution up to 0.5 M), the “solubility in a DHPS solution” value was “does not change significantly”. The solubility in series [1] (aqueous buffer) lay in the range of 100 to 300 mM (≈ 19.6 to 58.9 mg/mL).
